From PMC4842925, “Aristolochic acid, a plant extract used in the treatment of pain and linked to Balkan endemic nephropathy, is a regulator of K2P channels” (British Journal of Pharmacology, 2016) come the findings set out here.

What all share (assay): whole-cell patch clamp, tsA201 cells
Format in all cases: cell-based
Background: Patch clamp records ionic current or voltage across a cell membrane.

One assay concerns the target T1, hTRAAK (K2P4.1) (Homo sapiens, UniProt Q9NYG8).
T1 construct: gene KCNK4; isoform 2 in pcDNA3.1, transiently expressed in tsA201 cells; homodimer
T1 sequence (Q9NYG8 1-419 isoform Q9NYG8-2): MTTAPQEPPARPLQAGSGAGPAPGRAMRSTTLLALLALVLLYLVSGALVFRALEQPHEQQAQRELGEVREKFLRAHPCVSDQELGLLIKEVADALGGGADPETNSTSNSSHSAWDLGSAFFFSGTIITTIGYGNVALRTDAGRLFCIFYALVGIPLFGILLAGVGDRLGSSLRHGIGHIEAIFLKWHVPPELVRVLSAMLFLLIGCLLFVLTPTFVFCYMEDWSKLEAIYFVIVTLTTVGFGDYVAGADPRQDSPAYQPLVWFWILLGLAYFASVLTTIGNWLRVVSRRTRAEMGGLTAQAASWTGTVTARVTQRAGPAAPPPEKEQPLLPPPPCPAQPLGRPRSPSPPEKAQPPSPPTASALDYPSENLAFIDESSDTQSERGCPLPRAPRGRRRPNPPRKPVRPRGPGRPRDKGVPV
To be noted: authors: little effect; difference current between -40 and -80 mV; pH 7.4; 2.5 mM external K; room temperature.

The target in assay [1] is T2, hTASK-2 (K2P5.1) (Homo sapiens, UniProt O95279).
T2 construct: gene KCNK5; full-length channel in pcDNA3.1, transiently expressed in tsA201 cells; functional dimer
T2 sequence (O95279 1-499): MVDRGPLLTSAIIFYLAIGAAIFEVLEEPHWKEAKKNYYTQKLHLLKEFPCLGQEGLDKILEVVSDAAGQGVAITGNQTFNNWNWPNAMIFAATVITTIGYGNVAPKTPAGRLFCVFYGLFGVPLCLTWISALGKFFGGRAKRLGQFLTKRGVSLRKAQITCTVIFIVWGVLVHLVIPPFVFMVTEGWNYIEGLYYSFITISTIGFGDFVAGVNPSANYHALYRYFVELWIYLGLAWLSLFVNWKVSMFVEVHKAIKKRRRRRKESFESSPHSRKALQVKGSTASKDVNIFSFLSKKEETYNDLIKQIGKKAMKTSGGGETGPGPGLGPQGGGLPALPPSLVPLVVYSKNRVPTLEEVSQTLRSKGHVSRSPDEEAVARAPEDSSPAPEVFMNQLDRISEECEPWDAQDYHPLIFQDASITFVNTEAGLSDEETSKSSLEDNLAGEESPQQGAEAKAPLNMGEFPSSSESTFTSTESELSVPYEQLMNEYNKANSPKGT
Particulars: activation; no effect at 100 μM; pH 7.4; 2.5 mM external K; room temperature.

Assay [2] concerns the target T3, hTRESK (K2P18.1) (Homo sapiens, UniProt Q7Z418, S252E/S264E).
T3 construct: gene KCNK18; full-length channel in pcDNA3.1, transiently expressed in tsA201 cells; homodimer
T3 sequence (Q7Z418 1-384 S252E/S264E): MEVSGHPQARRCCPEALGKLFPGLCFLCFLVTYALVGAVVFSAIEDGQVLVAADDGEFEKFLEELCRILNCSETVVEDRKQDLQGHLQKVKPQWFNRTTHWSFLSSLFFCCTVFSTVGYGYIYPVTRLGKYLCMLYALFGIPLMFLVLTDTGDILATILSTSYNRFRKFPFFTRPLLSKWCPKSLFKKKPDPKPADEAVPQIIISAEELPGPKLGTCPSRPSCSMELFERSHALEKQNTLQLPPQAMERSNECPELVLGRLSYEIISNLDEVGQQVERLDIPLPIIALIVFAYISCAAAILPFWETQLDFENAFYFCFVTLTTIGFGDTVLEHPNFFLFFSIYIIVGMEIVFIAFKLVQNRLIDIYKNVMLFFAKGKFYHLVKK

Assay [3] has as its target T4, hTRESK (K2P18.1) (Homo sapiens, UniProt Q7Z418, S252A/S264A).
T4 construct: gene KCNK18; full-length channel in pcDNA3.1, transiently expressed in tsA201 cells; homodimer
T4 sequence (Q7Z418 1-384 S252A/S264A): T3 sequence (Q7Z418 1-384 S252E/S264E) with E252A, E264A

A further assay deals with T5, hTREK-2 (K2P10.1) (Homo sapiens, UniProt P57789).
T5 construct: gene KCNK10; full-length channel in pcDNA3.1, transiently expressed in tsA201 cells; homodimer
T5 sequence (P57789 1-538): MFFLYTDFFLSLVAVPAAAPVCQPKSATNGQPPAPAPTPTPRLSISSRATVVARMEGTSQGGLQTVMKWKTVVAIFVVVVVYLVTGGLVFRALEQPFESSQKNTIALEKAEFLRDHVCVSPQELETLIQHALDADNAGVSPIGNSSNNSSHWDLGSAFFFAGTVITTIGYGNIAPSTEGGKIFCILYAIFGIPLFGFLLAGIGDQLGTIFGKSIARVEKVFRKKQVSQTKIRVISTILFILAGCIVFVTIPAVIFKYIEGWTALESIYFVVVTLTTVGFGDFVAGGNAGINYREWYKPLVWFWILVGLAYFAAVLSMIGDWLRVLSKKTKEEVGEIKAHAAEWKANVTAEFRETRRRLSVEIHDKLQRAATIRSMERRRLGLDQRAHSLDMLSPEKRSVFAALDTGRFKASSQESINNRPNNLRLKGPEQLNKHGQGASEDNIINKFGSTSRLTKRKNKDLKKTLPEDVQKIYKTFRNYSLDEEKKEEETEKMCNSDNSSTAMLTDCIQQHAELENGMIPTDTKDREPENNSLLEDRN
Particulars: activation; difference current between -40 and -80 mV; pH 7.4; 2.5 mM external K; room temperature.

For assay [4], the target named is T6, hTRESK (K2P18.1) (Homo sapiens, UniProt Q7Z418).
T6 construct: gene KCNK18; full-length channel in pcDNA3.1, transiently expressed in tsA201 cells; homodimer
T6 sequence (Q7Z418 1-384): T3 sequence (Q7Z418 1-384 S252E/S264E) with E252S, E264S

Assay [5] deals with T7, hTRESK (K2P18.1) (Homo sapiens, UniProt Q7Z418, F145A/F352A).
T7 construct: gene KCNK18; full-length channel in pcDNA3.1, transiently expressed in tsA201 cells; homodimer
T7 sequence (Q7Z418 1-384 F145A/F352A): T3 sequence (Q7Z418 1-384 S252E/S264E) with F145A, E252S, E264S, F352A

Assay [6] concerns the target T8, hTASK-2 (K2P5.1) (Homo sapiens, UniProt O95279, T108P).
T8 construct: gene KCNK5; full-length channel in pcDNA3.1, transiently expressed in tsA201 cells; functional dimer
T8 sequence (O95279 1-499 T108P): T2 sequence (O95279 1-499) with T108P

The target of assay [7] is T2, hTASK-2 (K2P5.1). Particulars: activation; pH 7.4; 2.5 mM external K; room temperature.

Residue numbers refer to the chain shown, from its start.

The inhibition is the relative decrease from the control value, in per cent. Low values mean a weak effect, high ones a strong effect. Broadly, the IC50 is the concentration that gives 50% inhibition. Higher therefore signals weaker potency. With `COc1cccc2c1cc([N+](=O)[O-])c1c(C(=O)O)cc3c(c12)OCO3` [Aristolochic acid I], the “% enhancement at 100 μM” value is 8 ± 5% at hTRAAK (K2P4.1) and 44 ± 11% on hTREK-2 (K2P10.1). Also, the “% enhancement at 300 μM” value on hTASK-2 (K2P5.1) [1] turned out to be 21 ± 13%. Besides, the inhibition at 100 µM against hTRESK (K2P18.1) [2] is 73 ± 5%; against hTRESK (K2P18.1) [3], 80 ± 2%; on hTRESK (K2P18.1) [5], 0%. For the same compound, at hTRESK (K2P18.1) [4], the half-maximal inhibitory concentration (IC50) worked out at 13 ± 2 µM.

The compound `O=C(O)c1ccccc1Nc1cccc(C(F)(F)F)c1` [Flufenamic acid] registered an inhibition at 100 µM against hTASK-2 (K2P5.1) [6] of 15 ± 14%. For the same compound, the “% enhancement at 100 μM” value at hTASK-2 (K2P5.1) [7] turned out to be 80 ± 31%.
